Laboratory results reported in patent publication US11724992B2 (Novartis AG, priority 2017, dated 2023).

tested on: IL-1β production in PMA-differentiated THP-1 cells; experiment: IL-1β production in PMA-differentiated THP-1 cells stimulated with gramicidin (hTHP-1 assay, 2% fetal bovine serum; Procedures 1-3); assay type: cell-based, human; settings: Homo sapiens, THP-1, hTHP-1 assay containing 2% fetal bovine serum; bound; read-out: hTHP-1 IC50 (Average IC50 of compounds in hTHP-1 assay)
Method in brief: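 Readout is HTRF of IL-1β in cell-free supernatant after 2 h gramicidin (5 μM) challenge. Cells: THP-1 differentiated with PMA 20 ng/ml for 16-18 h, plated 50,000/well in 2% FBS RPMI, exposed to compound 1 h beforehand at final 100–0.0017 μM, DMSO 0.37%.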

| Structure (SMILES) | IC50 |
| --- | --- |
| CNS(=O)(=NC(=O)N(C)c1c2c(cc3c1CCC3)CCC2)c1cnc(C(C)(C)O)s1 (stereo not drawn) [Compound 249] | > 30000 nM |

same assay, conditions: Homo sapiens, THP-1, hTHP-1 assay containing 2% fetal bovine serum; class symbols; read-out: hTHP-1 IC50 (Average IC50 of compounds in hTHP-1 assay)

| Structure (SMILES) | IC50 |
| --- | --- |
| CC(C)(O)c1ccc(S(N)(=O)=NC(=O)Nc2c3c(cc4c2CCC4)CCC3)c(F)c1 (stereo not drawn) [Example 13, 2-fluoro-N′-(1,2,3,5,6,7-hexahydro-s-indacen-4-ylcarbamoyl)-4-(2-hydroxypropan-2-yl)benzenesulfonimidamide] | 40 to 200 nM |
| CC(C)(O)c1csc(S(N)(=O)=NC(=O)Nc2c3c(c(Cl)c4c2CCC4)CCC3)c1 (stereo not drawn) [Example 14, N′-(8-chloro-1,2,3,5,6,7-hexahydro-s-indacen-4-ylcarbamoyl)-4-(2-hydroxypropan-2-yl)thiophene-2-sulfonimidamide] | 8 to 40 nM |
| CC(C)c1cc(C#N)c(F)c(C(C)C)c1NC(=O)N=S(N)(=O)c1cnc(C(C)(C)O)s1 (stereo not drawn) [Example 15, N′-(4-cyano-3-fluoro-2,6-diisopropylphenylcarbamoyl)-2-(2-hydroxypropan-2-yl)thiazole-5-sulfonimidamide] | 40 to 200 nM |
| CC(C)c1cc(F)cc(C(C)C)c1NC(=O)N=S(N)(=O)c1cnc(C(C)(C)O)s1 (stereo not drawn) [Example 21, N′-(4-fluoro-2,6-diisopropylphenylcarbamoyl)-2-(2-hydroxypropan-2-yl)thiazole-5-sulfonimidamide] | 40 to 200 nM |
| CN(C)Cc1ccc(S(N)(=O)=NC(=O)Nc2c3c(cc4c2CCC4)CCC3)cc1 (stereo not drawn) [Example 28, 4-((dimethylamino)methyl)-N′-(1,2,3,5,6,7-hexahydro-s-indacen-4-ylcarbamoyl)benzenesulfonimidamide] | 40 to 200 nM |
| CC(C)(O)c1cc(F)c(S(N)(=O)=NC(=O)Nc2c3c(c(F)c4c2CCC4)CCC3)s1 (stereo not drawn) [Example 30, 3-fluoro-N′-(8-fluoro-1,2,3,5,6,7-hexahydro-s-indacen-4-ylcarbamoyl)-5-(2-hydroxypropan-2-yl)thiophene-2-sulfonimidamide] | 8 to 40 nM |
| CC(C)c1cc(OC(F)F)cc(C(C)C)c1NC(=O)N=S(N)(=O)c1ncc(C(C)(C)O)s1 (stereo not drawn) [Example 38, N′-(4-(difluoromethoxy)-2,6-diisopropylphenylcarbamoyl)-5-(2-hydroxypropan-2-yl)thiazole-2-sulfonimidamide] | 40 to 200 nM |
| CC(C)(O)c1ccc(S(N)(=O)=NC(=O)Nc2c3c(c(Cl)c4c2CCC4)CCC3)c(F)c1 (stereo not drawn) [Example 41] | 40 to 200 nM |
| Cc1oc(S(N)(=O)=NC(=O)Nc2c3c(c(F)c4c2CCC4)CCC3)cc1C(C)(C)O (stereo not drawn) [Example 45, N′-(8-fluoro-1,2,3,5,6,7-hexahydro-s-indacen-4-ylcarbamoyl)-4-(2-hydroxypropan-2-yl)-5-methylfuran-2-sulfonimidamide] | < 8 nM |
| CN(C)Cc1ccc(S(N)(=O)=NC(=O)Nc2c3c(cc4c2CCC4)CCC3)c(F)c1 (stereo not drawn) [Example 48, 4-((dimethylamino)methyl)-2-fluoro-N′-(1,2,3,5,6,7-hexahydro-s-indacen-4-ylcarbamoyl)benzene-sulfonimidamide] | 40 to 200 nM |
| CC(C)c1cc(F)cc(C(C)C)c1NC(=O)N=S(N)(=O)c1ccc(C(C)(C)O)s1 (stereo not drawn) [Example 49, N′-(4-fluoro-2,6-diisopropylphenylcarbamoyl)-5-(2-hydroxypropan-2-yl)thiophene-2-sulfonimidamide] | 200 to 1000 nM |
| CC(C)(O)c1ccc(S(N)(=O)=NC(=O)Nc2c3c(c(F)c4c2CCC4)CCC3)c(Cl)c1 (stereo not drawn) [Example 50, 2-chloro-N′-(8-fluoro-1,2,3,5,6,7-hexahydro-s-indacen-4-ylcarbamoyl)-4-(2-hydroxypropan-2-yl)benzenesulfonimidamide] | 1000 to 5000 nM |
| Cc1cc(S(N)(=O)=NC(=O)Nc2c3c(cc4c2CCC4)CCC3)ccc1C(C)(C)O (stereo not drawn) [Example 52, N′-((1,2,3,5,6,7-hexahydro-s-indacen-4-yl)carbamoyl)-4-(2-hydroxypropan-2-yl)-3-methylbenzenesulfonimidamide] | 200 to 1000 nM |
| Cc1nc(C(C)(C)O)sc1S(N)(=O)=NC(=O)Nc1c2c(cc3c1CCC3)CCC2 (stereo not drawn) [Example 53, N′-((1,2,3,5,6,7-hexahydro-s-indacen-4-yl)carbamoyl)-2-(2-hydroxypropan-2-yl)-4-methylthiazole-5-sulfonimidamide] | 8 to 40 nM |
| CC(C)(O)c1cc(F)cc(S(N)(=O)=NC(=O)Nc2c3c(c(F)c4c2CCC4)CCC3)c1 (stereo not drawn) [Example 56, 3-fluoro-N′-((8-fluoro-1,2,3,5,6,7-hexahydro-s-indacen-4-yl)carbamoyl)-5-(2-hydroxypropan-2-yl)benzenesulfonimidamide] | 200 to 1000 nM |
| Cc1cc(S(N)(=O)=NC(=O)Nc2c(C(C)C)cc(OC(F)F)cc2C(C)C)sc1C(C)(C)O (stereo not drawn) [Example 57, N′-((4-(difluoromethoxy)-2,6-diisopropylphenyl)carbamoyl)-5-(2-hydroxypropan-2-yl)-4-methylthiophene-2-sulfonimidamide] | 200 to 1000 nM |
| CC(C)(O)c1cc(S(N)(=O)=NC(=O)Nc2c3c(c(F)c4c2CCC4)CCC3)ccc1F (stereo not drawn) [Example 58, 4-fluoro-N′-((8-fluoro-1,2,3,5,6,7-hexahydro-s-indacen-4-yl)carbamoyl)-3-(2-hydroxypropan-2-yl)benzenesulfonimidamide] | 1000 to 5000 nM |
| Cc1nc(C(C)(C)O)sc1S(N)(=O)=NC(=O)Nc1c2c(c(F)c3c1CCC3)CCC2 (stereo not drawn) [Example 59, N′-((8-fluoro-1,2,3,5,6,7-hexahydro-s-indacen-4-yl)carbamoyl)-2-(2-hydroxypropan-2-yl)-4-methylthiazole-5-sulfonimidamide] | 8 to 40 nM |
| CC(C)(O)c1ccc(S(N)(=O)=NC(=O)Nc2c3c(cc4c2CCC4)CCC3)cc1F (stereo not drawn) [Example 60, 3-fluoro-N′-((1,2,3,5,6,7-hexahydro-s-indacen-4-yl)carbamoyl)-4-(2-hydroxypropan-2-yl)benzenesulfonimidamide] | 1000 to 5000 nM |
| CC(C)(O)c1csc(S(N)(=O)=NC(=O)Nc2c3c(c(F)c4c2CCC4)CCC3)n1 (stereo not drawn) [Example 61, N′-((8-fluoro-1,2,3,5,6,7-hexahydro-s-indacen-4-yl)carbamoyl)-4-(2-hydroxypropan-2-yl)thiazole-2-sulfonimidamide] | 8 to 40 nM |
| CC(C)c1ccc(F)c(C(C)C)c1NC(=O)N=S(N)(=O)c1cnc(C(C)(C)O)s1 (stereo not drawn) [Example 62, N′-((3-fluoro-2,6-diisopropylphenyl)carbamoyl)-2-(2-hydroxypropan-2-yl)thiazole-5-sulfonimidamide] | 40 to 200 nM |
| CC(C)c1cc(C#N)cc(C(C)C)c1NC(=O)N=S(N)(=O)c1cc(C#N)cc(C(C)(C)O)c1 (stereo not drawn) [Example 67, 3-cyano-N′-((4-cyano-2,6-diisopropylphenyl)carbamoyl)-5-(2-hydroxypropan-2-yl)benzenesulfonimidamide] | 200 to 1000 nM |
| CC(C)c1cc(C#N)c(F)c(C(C)C)c1NC(=O)NS(=N)(=O)c1sc(C(C)(C)O)nc1CO (stereo not drawn) [Example 71, N-((4-cyano-3-fluoro-2,6-diisopropylphenyl)carbamoyl)-4-(hydroxymethyl)-2-(2-hydroxypropan-2-yl)thiazole-5-sulfonimidamide] | 1000 to 5000 nM |
| CC(C)(O)c1ncc(S(N)(=O)=NC(=O)Nc2c3c(cc4c2CC4)CCC3)s1 (stereo not drawn) [Example 223, 2-(2-Hydroxypropan-2-yl)-N′-((2,4,5,6-tetrahydro-1H-cyclobuta[f]inden-3-yl)carbamoyl)thiazole-5-sulfonimidamide] | 8 to 40 nM |

same assay, conditions: hTHP-1 assay containing 2% fetal bovine serum; class symbols; read-out: hTHP-1 IC50 (Average IC50 of compounds in hTHP-1 assay)

| Structure (SMILES) | IC50 |
| --- | --- |
| CC(C)c1cc(C#N)c(F)c(C(C)C)c1NC(=O)N=S(N)(=O)c1cnc(C(C)(O)CO)s1 (stereo not drawn) [Example 72, N′-((4-cyano-3-fluoro-2,6-diisopropylphenyl)carbamoyl)-2-(1,2-dihydroxypropan-2-yl)thiazole-5-sulfonimidamide] | 200 to 1000 nM |
| Cc1oc(S(N)(=O)=NC(=O)Nc2c3c(cc4c2C(C)CC4)CCC3)cc1C(C)(C)O [Example 127, Two isomers of (R,S)-and (R,R)-or (S,S)-and (S,R) 4-(2-hydroxypropan-2-yl)-5-methyl-N′-((3-methyl-1,2,3,5,6,7-hexahydro-s-indacen-4-yl)carbamoyl)furan-2-sulfonimidamide] | 40 to 200 nM |
